Assay results published in patent publication US20100216761A1, “NOVEL AZETIDINONES USEFUL AS INHIBITORS OF ELASTASE” (priority 2007, published 2010).

Legend:
[1] = biological target: T1, Human Leukocyte Elastase (HLE) (Homo sapiens, UniProt P08246); assay: HLE time-dependent inactivation assay, PMN cell lysate source of HLE; format: biochemical; settings: 3 nM, inhibitor 26.5 nM, substrate 1 mM
T1 construct: The PMN lysates were prepared by isolating human neutrophils from whole blood; from tissue; host or cells: human neutrophils (PMN) isolated from whole blood, lysed by sonication in PBS
T1 sequence (P08246 30-267): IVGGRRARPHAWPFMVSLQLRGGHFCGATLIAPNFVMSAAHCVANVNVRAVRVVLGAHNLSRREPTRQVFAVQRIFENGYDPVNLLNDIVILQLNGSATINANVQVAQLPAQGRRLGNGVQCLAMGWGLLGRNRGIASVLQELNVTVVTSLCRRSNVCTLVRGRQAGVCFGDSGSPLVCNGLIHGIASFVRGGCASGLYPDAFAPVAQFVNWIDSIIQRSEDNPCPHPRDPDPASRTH
Experimental: (§1) As exemplified in Table 1, the Examples 1-6 of this application were determined to be potent, mechanism-based inactivators of Human Leukocyte Elastase (HLE) in two different in vitro time-dependent incubation assays. The two assays are described at the end of this Biological Data Section in Note 1. See the literature references in Note 2 for a discussion of the mechanism for this type of beta-lactam inactivation of HLE. Two sources of enzyme were used; either purified elastase or crude extracts of human polymorphonuclear leukocytes (PMN) containing elastase activity. […] For the compound of Example 1, the results were 638,000 M^−1 sec^−1 (average of n=3) and 809,000 M^−1 sec^−1 (n=4), respectively, and for Example 3, 804,000 M^−1 sec^−1 (average of n=4) and 952,000 M^−1 sec^−1 (n=5). […] Note that in this assay, head-to-head comparisons are particularly valuable.
(§2) Note 1: Enzyme Assays for the Inhibition of Human Polymorphonuclear Leukocyte Elastase Via Hydrolysis of N-Methyoxysuccinyl-alanyl-alanyl-prolylalanine-p-nitroanilide Reagent.
(§3) Prepare substrate by first dissolving in DMSO to 30 mg/ml (50 mM). Further dilute the substrate to 10 mM and add 25 μl to a final volume of 250 μl for a final concentration of 1 mM in the assay.
(§4) Prepare the enzyme in TES Buffer (0.045M TES (N-tris[hydroxymethyl]methyl-2-mino-ethanesulfonic acid), 0.45 M NaCl, pH 7.5.). Two sources of enzyme were used; either crude extracts of human polymorphonuclear leukocytes (PMN) containing elastase activity or purified elastase. The PMN lysates were prepared by isolating human neutrophils from whole blood after dextran sedimentation, ficoll density separation and red blood cell lysis. The neutrophils were lysed in PBS with sonciation and the concentration of active enzyme was determined by utilizing a standard curve of purified enzyme. For the purified elastase, the enzyme was resuspended at 10 mg/ml (˜340 μM) in 0.02M NaOAc, 50% glycerol. For both the PMN lysate and purified enzyme, a further dilution of enzyme was made to 30 nM and 25 μl was added to a final volume of 250 μl. The final concentration of enzyme in the assay was 3 nM.
(§5) The inhibitors to be tested were dissolved in DMSO at 10 mM. Directly before use, the inhibitors were further diluted into TES Buffer to 265 nM and […] was added to a final volume of 250 μl. The final concentration of inhibitor in the assay was 26.5 nM.
(§6) In a 96-well plate (flat bottom, polystyrene) 175 μl TES Buffer, 25 μl substrate, 25 μl inhibitor and 25 μl enzyme were added. After thoroughly mixing, the plate was then read in a spectrophotometer at 410 nm for 30 minutes counting every 10 seconds. Results were expressed as Kinact/Ki which is the second order rate constant in per mole per second for inactivation of the enzyme.

[2] = Human liver microsome stability (Assays #1-#4); format: in vitro ADME; settings: Assay #1, substrate 1 μM, protein 0.1 mg/mL, 37° C.; for half-life at 1 μM: human, liver microsomes
Experimental: The results for Examples 1 and 3 were t112=87 and 32 minutes with 78% and 60% remaining after 30 minutes, respectively, compared to shorter half-lives and lesser amounts left for Examples 2 and 4-6 (see Note 6 for conditions).
Under similar in vitro human liver microsome preparation stability assay conditions at 37° C. for 30 or 60 minutes in a separate head-to-head experiments (Assay #2 and #3) (see Note 6 for conditions) with Examples 1 and 3 and the comparator Compound #290 from U.S. Pat. No. 5,591,737, the amounts left after the 30 minute incubation (with […] microsome protein vs 0.1 mg/mL for Assay #3) were 67, 99 and 79% and for the 60 minute incubation were 94, 73 and 77%, respectively. Similarly, in a third repeat assay (Assay #4 with—NADPH controls) (see Note 6 for conditions), 90 and 72% were remaining for Example 1 and the comparator compound, respectively. […]
Note 6: Human Liver Microsome Assay # 1-3 conditions. • Assay experiment #1: Substrate concentration=1 μM; Protein concentration=0.1 mg/mL; incubation time=30 minutes at 37° C. • Assay experiment #2: Substrate concentration=1 μM; Protein concentration 0.1 mg/mL; incubation time=30 minutes at 37° C. • Assay experiment #3: Substrate concentration=1 μM; Protein concentration=0.1 mg/mL; incubation time=60 minutes at 37° C. • Assay experiment #4: Substrate concentration=1 μM; Protein concentration=1.0 mg/mL; incubation time=60 minutes at 37° C.

[3] = biological target: T1, Human Leukocyte Elastase (HLE); assay: HLE time-dependent inactivation assay, purified elastase; format: biochemical; settings: purified elastase 3 nM; inhibitor 26.5 nM; substrate 1 mM
Experimental: as §1, §2, §3, §4, §5, §6

SMILES | kinact/KI [1] | % Left @ 30 min [2] | half-life at 1 μM [2] | kinact/KI [3]
CCC[C@@H](NC(=O)N1C(=O)C(CC)(CC)[C@@H]1Oc1ccc(C(=O)N(CC)CCN(CC)CC)cc1)c1ccc(C(F)(F)F)cc1 [Example 5, 2-(S)-[4-(((2-(Diethylamino)ethyl)ethylamino)carbonyl)phenoxy]-3,3-diethyl-N-[1-(R)-(4-(trifluoromethyl)phenyl)butyl]-4-oxo-1-azetidinecarboxamide] | 375000 M⁻¹ s⁻¹ | 31% | 30 min | –
CCC[C@@H](NC(=O)N1C(=O)C(CC)(CC)[C@@H]1Oc1ccc(C(=O)N(C)CCN(C)C)cc1)c1ccc(C(F)(F)F)cc1 [Example 4, 2-(S)-[4-(((2-(Dimethylamino)ethyl)methylamino)carbonyl)phenoxy]-3,3-diethyl-N-[1-(R)-(4-(trifluoromethyl)phenyl)butyl]-4-oxo-1-azetidinecarboxamide] | 427000 M⁻¹ s⁻¹ | 51% | 25 min | 290000 M⁻¹ s⁻¹
